In general, IC50 refers to the concentration needed to halve the response being measured. Lower therefore signals higher potency.

The assay concerns the target T1, Human MTHFD2 (Homo sapiens, UniProt P13995).
T1 construct: residues 36-350 in Uniport ID P13995; His6 (N); made in house; host or cells: E. coli
T1 sequence (P13995 36-350): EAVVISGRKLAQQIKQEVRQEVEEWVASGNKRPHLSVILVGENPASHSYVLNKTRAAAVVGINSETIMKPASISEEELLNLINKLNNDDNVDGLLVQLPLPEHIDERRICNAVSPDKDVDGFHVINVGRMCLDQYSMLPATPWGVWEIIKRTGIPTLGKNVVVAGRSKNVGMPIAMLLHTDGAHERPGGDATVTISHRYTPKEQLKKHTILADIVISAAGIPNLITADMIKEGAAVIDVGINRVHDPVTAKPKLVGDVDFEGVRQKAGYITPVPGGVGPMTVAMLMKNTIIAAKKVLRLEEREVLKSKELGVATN
As to the kind of experiment: MTHFD2 Activity Assay (dehydrogenase activity, diaphorase/resazurin coupled fluorescence). The class given is biochemical. The conditions noted are these: inhibitory activity (IC50 and/or binding constant); 0.2 nM MTHFD2, 11 concentrations. The method, boiled down: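 His6-tagged MTHFD2 (res. 36-350), E. coli-expressed, at 0.2 nM preincubated with compound 15 min in Hepes pH 8.0/MgCl2/KH2PO4 buffer; 70 μM CH2-THF, 1 mM NAD+ added with resazurin/diaphorase, 30 min, EDTA stop. Resorufin fluorescence (ex 525/em 598); IC50 from 11-point 4-parameter fit.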
(In general: Resazurin is reduced to fluorescent resorufin, in cell work by metabolically active cells.)
Take `Cn1c(NC2CCC(C)(O)C2)nc2c1c(=O)n(Cc1ccc(Cl)c(Cl)c1)c(=O)n2C` (racemic) [Example 164, 1-[(3,4-dichlorophenyl)methyl]-8-[(3-hydroxy-3-methylcyclopentyl)amino]-3,7-dimethyl-2,3,6,7-tetrahydro-1H-purine-2,6-dione]: the IC50 was 10 to 1000 nM.

Turning to `COC(=O)c1ccc(Nc2nc3c(c(=O)n(Cc4ccc(Cl)c(Cl)c4)c(=O)n3C)n2C)cc1` [Example 154, Methyl 4-(1-(3,4-dichlorobenzyl)-3,7-dimethyl-2,6-dioxo-2,3,6,7-tetrahydro-1H-purin-8-ylamino)benzoate], the half-maximal inhibitory concentration (IC50) lay in the range of 1000 to 5000 nM.

With `Cn1c(=O)n(Cc2ccc(Cl)c(Cl)c2)c(=O)c2c1ncn2CCO` [Example 248, 1-(3,4-dichlorobenzyl)-7-(2-hydroxyethyl)-3-methyl-1H-purine-2,6(3H,7H)-dione], the IC50 was 5000 to 10000 nM. In the case of `Cn1c(C(N)C2COC2)nc2c1c(=O)n(Cc1cc3c(Cl)cccc3[nH]1)c(=O)n2C` (stereo not drawn) [Example 467, 8-[amino(oxetan-3-yl)methyl]-1-[(4-chloro-1H-indol-2-yl)methyl]-3,7-dimethyl-purine-2,6-dione], the IC50 is 5000 to 10000 nM. As for `C[C@@H](Nc1nc2c(c(=O)n(Cc3ccc(Cl)c(Cl)c3)c(=O)n2C)n1C)C(=O)O` [Example 129, (R)-2-(1-(3,4-dichlorobenzyl)-3,7-dimethyl-2,6-dioxo-2,3,6,7-tetrahydro-1H-purin-8-ylamino)propanoic acid], the IC50 lay in the range of 1000 to 5000 nM. For the molecule `Cn1c(C(N)C2CC2)nc2c1c(=O)n(Cc1cc3c(Cl)cccc3[nH]1)c(=O)n2C` (stereo not drawn) [Example 444, 8-[amino(cyclopropyl)methyl]-1-[(4-chloro-1H-indol-2-yl)methyl]-3,7-dimethyl-purine-2,6-dione], the concentration for half-maximal inhibition (IC50) is 10 to 1000 nM. Regarding `Cn1cnc2c1c(=O)n(Cc1cc3cc(Cl)ccc3[nH]1)c(=O)n2C` [Example 240, 1-((5-chloro-1H-indol-2-yl)methyl)-3,7-dimethyl-1H-purine-2,6(3H,7H)-dione], the IC50 was in the range of 1000 to 5000 nM.

`Cn1c(Nc2cccc(N)n2)nc2c1c(=O)n(Cc1ccc(Cl)c(Cl)c1)c(=O)n2C` [Example 150, 8-(6-aminopyridin-2-ylamino)-1-(3,4-dichlorobenzyl)-3,7-dimethyl-1H-purine-2,6(3H,7H)-dione] came in with an IC50 of 10 to 1000 nM. Consider `Cn1c(Nc2ccc3c(c2)C(CCO)CC3)nc2c1c(=O)n(Cc1ccc(Cl)c(Cl)c1)c(=O)n2C` (stereo not drawn) [Example 323, 1-(3,4-dichlorobenzyl)-8-((3-(2-hydroxyethyl)-2,3-dihydro-1H-inden-5-yl)amino)-3,7-dimethyl-1H-purine-2,6(3H,7H)-dione], for which the IC50 was 1000 to 5000 nM. For `Cn1c(Nc2ccc(C(=O)O)cc2)nc2c1c(=O)n(Cc1ccc(Cl)c(Cl)c1)c(=O)n2C` [Example 269, 4-[[1-[(3,4-dichlorophenyl)methyl]-3,7-dimethyl-2,6-dioxo-purin-8-yl]amino]benzoic acid], the concentration for half-maximal inhibition (IC50) is 10 to 1000 nM. Molecule `Cc1ccc2[nH]c(Cn3c(=O)c4c(nc(N)n4C)n(C)c3=O)cc2c1` [Example 232, 8-amino-3,7-dimethyl-1-((5-methyl-1H-indol-2-yl)methyl)-1H-purine-2,6(3H,7H)-dione] displayed a concentration for half-maximal inhibition (IC50) above 10000 nM. For the molecule `Cn1c(N[C@H](CO)CC2CCCCC2)nc2c1c(=O)n(Cc1ccc(C(F)(F)F)cc1)c(=O)n2C` [Example 120, (S)-8-(1-cyclohexyl-3-hydroxypropan-2-ylamino)-3,7-dimethyl-1-(4-(trifluoromethyl)benzyl)-1H-purine-2,6(3H,7H)-dione], the concentration for half-maximal inhibition (IC50) was above 10000 nM. The value for `Cn1c(Nc2cc(CCC(=O)O)ccn2)nc2c1c(=O)n(Cc1ccc(Cl)c(Cl)c1)c(=O)n2C` [Example 281, 3-(2-(1-(3,4-dichlorobenzyl)-3,7-dimethyl-2,6-dioxo-2,3,6,7-tetrahydro-1H-purin-8-ylamino)pyridin-4-yl)propanoic acid] was 1000 to 5000 nM.

For `Cn1c(N[C@H]2CCC[C@@H]2O)nc2c1c(=O)n(Cc1ccc(Cl)c(Cl)c1)c(=O)n2C` [Example 92, 1-[(3,4-dichlorophenyl)methyl]-8-{[(1S,2S)-2-hydroxycyclopentyl]amino}-3,7-dimethyl-2,3,6,7-tetrahydro-1H-purine-2,6-dione], the IC50 lay within 10 to 1000 nM. The molecule `Cn1c(=O)n(Cc2ccc(Cl)c(Cl)c2)c(=O)c2c1nc(NC1CCCC(C(=O)O)C1)n2CCN` (stereo not drawn) [Example 369, 3-(7-(2-aminoethyl)-1-(3,4-dichlorobenzyl)-3-methyl-2,6-dioxo-2,3,6,7-tetrahydro-1H-purin-8-ylamino)cyclohexanecarboxylic acid] showed an IC50 of 10 to 1000 nM.

Take `Cn1c(Nc2cn[nH]c2)nc2c1c(=O)n(Cc1ccc(Cl)c(Cl)c1)c(=O)n2C` [Example 135]: the 50% inhibitory concentration (IC50) was 1000 to 5000 nM. The value for `Cc1cccc2cc(Cn3c(=O)c4c(nc(Nc5ccncc5)n4C)n(C)c3=O)[nH]c12` [Example 365, 3,7-dimethyl-1-[(7-methyl-1H-indol-2-yl)methyl]-8-(4-pyridylamino)purine-2,6-dione] was 10 to 1000 nM; that for `Cn1c(NCC(N)=O)nc2c1c(=O)n(Cc1cc3c(Cl)cccc3[nH]1)c(=O)n2C` [Example 360, 2-(1-((4-chloro-1H-indol-2-yl)methyl)-3,7-dimethyl-2,6-dioxo-2,3,6,7-tetrahydro-1H-purin-8-ylamino)acetamide] was 10 to 1000 nM; that for `Cn1c(N[C@H]2CC[C@@H](O)C2)nc2c1c(=O)n(Cc1ccc(C(F)(F)F)cc1)c(=O)n2C` (single isomer, unassigned) [Example 156, 8-((1S,3R)-3-hydroxycyclopentylamino)-3,7-dimethyl-1-(4-(trifluoromethyl)benzyl)-1H-purine-2,6(3H,7H)-dione or 8-((1R,3S)-3-hydroxycyclopentylamino)-3,7-dimethyl-1-(4-(trifluoromethyl)benzyl)-1H-purine-2,6(3H,7H)-dione] was 1000 to 5000 nM. The value for `Cn1c(=O)n(Cc2ccc(Cl)c(Cl)c2)c(=O)c2c1nc(NC1CCCC(C(=O)O)C1)n2CC(=O)O` (stereo not drawn) [Example 307, 3-(7-(carboxymethyl)-1-(3,4-dichlorobenzyl)-3-methyl-2,6-dioxo-2,3,6,7-tetrahydro-1H-purin-8-ylamino)cyclohexanecarboxylic acid] was 1000 to 5000 nM; that for `Cn1c(Nc2ccc(N3CCNCC3)cn2)nc2c1c(=O)n(Cc1cc3c(Cl)cccc3[nH]1)c(=O)n2C` [Example 392, 1-[(4-chloro-1H-indol-2-yl)methyl]-3,7-dimethyl-8-[(5-piperazin-1-yl-2-pyridyl)amino]purine-2,6-dione] was 10 to 1000 nM; that for `Cn1c(NC2CNC(=O)C2)nc2c1c(=O)n(Cc1cc3ccccc3[nH]1)c(=O)n2C` (racemic) [Example 214, (±)-1-((1H-indol-2-yl)methyl)-3,7-dimethyl-8-(5-oxopyrrolidin-3-ylamino)-1H-purine-2,6(3H,7H)-dione] was 10 to 1000 nM. With `C[C@H](O)CNc1nc2c(c(=O)n(Cc3ccc(Cl)c(F)c3)c(=O)n2C)n1C` [Example 25, 1-[(4-chloro-3-fluorophenyl)methyl]-8-{[(2S)-2-hydroxypropyl]amino}-3,7-dimethyl-2,3,6,7-tetrahydro-1H-purine-2,6-dione], the IC50 lay in the range of 1000 to 5000 nM. Next, `CCc1cccc2[nH]c(Cn3c(=O)c4c(nc(Nc5ccncc5)n4C)n(C)c3=O)cc12` [Example 387, 1-((4-ethyl-1H-indol-2-yl)methyl)-3,7-dimethyl-8-(pyridin-4-ylamino)-1H-purine-2,6(3H,7H)-dione]: 10 to 1000 nM. `Cn1c(N[C@@H]2CCNC2)nc2c1c(=O)n(Cc1ccc(Cl)c(Cl)c1)c(=O)n2C` [Example 60, 1-[(3,4-dichlorophenyl)methyl]-3,7-dimethyl-8-{[(3R)-pyrrolidin-3-yl]amino}-2,3,6,7-tetrahydro-1H-purine-2,6-dione] yielded a half-maximal inhibitory concentration (IC50) of 1000 to 5000 nM.

Consider `Cn1c(NCCS(N)(=O)=O)nc2c1c(=O)n(Cc1ccc(Cl)c(Cl)c1)c(=O)n2C` [Example 102, 2-(1-(3,4-dichlorobenzyl)-3,7-dimethyl-2,6-dioxo-2,3,6,7-tetrahydro-1H-purin-8-ylamino)ethanesulfonamide], for which the IC50 is 5000 to 10000 nM. `Cn1c(Nc2cccc([C@H]3C[C@@H]3CO)n2)nc2c1c(=O)n(Cc1cc3c(Cl)cccc3[nH]1)c(=O)n2C` (racemic) [Example 335, (±)-trans-1-((4-chloro-1H-indol-2-yl)methyl)-8-((6-(-2-(hydroxymethyl)cyclopropyl)pyridin-2-yl)amino)-3,7-dimethyl-1H-purine-2,6(3H,7H)-dione] returned an IC50 of 1000 to 5000 nM.

Take `Cn1c(Cn2c(=O)c3c(nc(N[C@H]4CC[C@@H](O)C4)n3C)n(C)c2=O)cc2cc(Cl)ccc21` (racemic) [Example 178, (±)-1-((5-chloro-1-methyl-1H-indol-2-yl)methyl)-8-((cis)-3-hydroxycyclopentylamino)-3,7-dimethyl-1H-purine-2,6(3H,7H)-dione]: the IC50 was 10 to 1000 nM.

For `Cn1c(C(N)c2ccccc2)nc2c1c(=O)n(Cc1cc3c(Cl)cccc3[nH]1)c(=O)n2C` (stereo not drawn) [Example 411, 8-(amino(phenyl)methyl)-1-((4-chloro-1H-indol-2-yl)methyl)-3,7-dimethyl-1H-purine-2,6(3H,7H)-dione], the IC50 was in the range of 10 to 1000 nM. Next, `COCc1cc(Cn2c(=O)c3c(ncn3C)n(C)c2=O)ccc1Cl` [Example 252, 1-(4-chloro-3-(methoxymethyl)benzyl)-3,7-dimethyl-1H-purine-2,6(3H,7H)-dione]: above 10000 nM.

Values taken from patent US12187728B2 (Raze Therapeutics, Inc., priority 2015, dated 2025).
